Tests used:
102 barcoded cell lines = assay: PRISM, 102 barcoded cell lines in pools; assay type: cell-based; conditions: 102 cell lines
Description: PRISM was used to identify novel anticancer compounds, using a set of 102 barcoded cell lines including 90 non-small cell lung adenocarcinoma lines (and 2 duplicate lines with different barcode labels) and 10 remaining cell lines representing other tissues of origins.
Using the AUC for each cell line's response to BRD-7880, a PRISM “activity profile” was created to query whether the sensitivity pattern of BRD-7880 across the cell line panel was related to any of the tool compounds assayed in parallel. […] Thus it was hypothesized that BRD-7880 was functioning as an inhibitor of aurora kinases.

308 kinases = assay: Kinase activity profiling, Millipore KinaseProfiler; assay type: biochemical
HCT-116 cells = assay: DNA content by propidium iodide flow cytometry; assay type: cell-based; conditions: 10 μM, 24 hours or 48 hours
Procedure: In addition, HCT-116 cells were treated with 10 μM of DMSO, or the Aurora Kinase Inhibitors barasertib, GSK1070916, MLN8054, BRD-7880, or tozasertib. 24 hours or 48 hours following treatment, cells were stained with propidium iodide and DNA content per cell was assessed using a Becton Dickinson LSR II flow cytometer.

AKT1 = biological target: T1, AKT1 (Homo sapiens, UniProt P31749); assay: DiscoveRx KinomeScan binding
T1 construct: purchased DiscoveRx (KINOMEscan scanEDGE panel)

AURKA = biological target: T2, AURKA (Homo sapiens, UniProt O14965); assay: DiscoveRx KinomeScan binding
T2 construct: purchased DiscoveRx (KINOMEscan scanEDGE panel)
T2 sequence (O14965 whole entry): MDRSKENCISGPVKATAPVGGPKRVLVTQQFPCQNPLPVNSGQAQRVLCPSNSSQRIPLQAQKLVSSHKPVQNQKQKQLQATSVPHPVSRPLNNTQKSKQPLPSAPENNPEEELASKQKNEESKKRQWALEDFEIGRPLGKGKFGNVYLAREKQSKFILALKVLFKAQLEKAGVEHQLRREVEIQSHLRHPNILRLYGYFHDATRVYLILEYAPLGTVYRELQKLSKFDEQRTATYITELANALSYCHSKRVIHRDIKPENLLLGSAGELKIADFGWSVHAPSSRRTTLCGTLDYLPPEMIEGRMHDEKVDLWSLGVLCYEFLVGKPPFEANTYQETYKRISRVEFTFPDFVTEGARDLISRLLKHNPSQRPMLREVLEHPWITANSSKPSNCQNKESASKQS

AURKB = biological target: T3, AURKB (Homo sapiens, UniProt Q96GD4); assay: DiscoveRx KinomeScan binding
T3 construct: purchased DiscoveRx (KINOMEscan scanEDGE panel)
T3 sequence (Q96GD4 whole entry): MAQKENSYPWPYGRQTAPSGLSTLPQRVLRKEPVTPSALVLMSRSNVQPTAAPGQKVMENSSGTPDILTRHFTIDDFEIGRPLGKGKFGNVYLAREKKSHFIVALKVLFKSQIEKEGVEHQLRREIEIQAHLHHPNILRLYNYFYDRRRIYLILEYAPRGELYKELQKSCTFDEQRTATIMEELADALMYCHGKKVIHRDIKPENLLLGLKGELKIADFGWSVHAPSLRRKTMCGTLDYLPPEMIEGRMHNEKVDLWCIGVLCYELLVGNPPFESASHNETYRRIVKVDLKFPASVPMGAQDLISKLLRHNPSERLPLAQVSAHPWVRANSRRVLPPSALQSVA

BMPR2 = biological target: T4, BMPR2 (Homo sapiens, UniProt Q13873); assay: DiscoveRx KinomeScan binding
T4 construct: purchased DiscoveRx (KINOMEscan scanEDGE panel)

BRAF = biological target: T5, BRAF (Homo sapiens, UniProt P15056); assay: DiscoveRx KinomeScan binding
T5 construct: purchased DiscoveRx (KINOMEscan scanEDGE panel)

BTK = biological target: T6, BTK (Homo sapiens, UniProt Q06187); assay: DiscoveRx KinomeScan binding
T6 construct: purchased DiscoveRx (KINOMEscan scanEDGE panel)

CDK9 = biological target: T7, CDK9 (Homo sapiens, UniProt P50750); assay: DiscoveRx KinomeScan binding
T7 construct: purchased DiscoveRx scanEDGE panel
T7 sequence (P50750 whole entry): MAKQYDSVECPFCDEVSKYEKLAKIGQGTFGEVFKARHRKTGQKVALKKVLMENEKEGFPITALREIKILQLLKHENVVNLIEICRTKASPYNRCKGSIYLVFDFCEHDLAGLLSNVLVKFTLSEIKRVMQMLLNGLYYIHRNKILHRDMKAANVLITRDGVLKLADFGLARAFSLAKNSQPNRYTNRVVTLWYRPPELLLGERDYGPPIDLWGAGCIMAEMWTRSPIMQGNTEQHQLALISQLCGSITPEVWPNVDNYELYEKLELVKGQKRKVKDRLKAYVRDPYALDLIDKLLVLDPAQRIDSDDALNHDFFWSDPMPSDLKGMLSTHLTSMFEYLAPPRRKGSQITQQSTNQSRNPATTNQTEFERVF

CSNK1D = biological target: T8, CSNK1D (Homo sapiens, UniProt P48730); assay: DiscoveRx KinomeScan binding
T8 construct: purchased DiscoveRx scanEDGE panel

DYRK1B = biological target: T9, DYRK1B (Homo sapiens, UniProt Q9Y463); assay: DiscoveRx KinomeScan binding
T9 construct: purchased DiscoveRx scanEDGE panel
T9 sequence (Q9Y463 whole entry): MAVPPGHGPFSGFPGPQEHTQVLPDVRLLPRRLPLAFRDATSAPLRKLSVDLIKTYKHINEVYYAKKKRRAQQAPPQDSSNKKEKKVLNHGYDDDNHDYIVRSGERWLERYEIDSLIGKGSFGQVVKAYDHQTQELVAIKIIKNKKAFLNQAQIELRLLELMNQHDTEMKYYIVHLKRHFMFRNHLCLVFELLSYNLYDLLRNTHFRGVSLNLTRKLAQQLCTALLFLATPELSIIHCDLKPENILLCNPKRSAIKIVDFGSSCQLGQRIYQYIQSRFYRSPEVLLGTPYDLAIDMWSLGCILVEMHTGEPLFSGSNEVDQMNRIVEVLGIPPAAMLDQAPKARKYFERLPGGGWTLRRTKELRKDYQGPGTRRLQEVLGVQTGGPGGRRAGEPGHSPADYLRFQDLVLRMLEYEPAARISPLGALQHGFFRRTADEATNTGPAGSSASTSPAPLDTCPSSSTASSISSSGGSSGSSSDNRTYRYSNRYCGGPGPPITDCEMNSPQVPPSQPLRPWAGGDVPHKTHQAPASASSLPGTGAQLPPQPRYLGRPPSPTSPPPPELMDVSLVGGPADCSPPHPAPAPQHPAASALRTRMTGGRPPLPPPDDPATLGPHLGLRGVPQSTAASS

EGFR = biological target: T10, EGFR (Homo sapiens, UniProt P00533); assay: DiscoveRx KinomeScan binding
T10 construct: purchased DiscoveRx scanEDGE panel

EGFR(L858R) = biological target: T11, EGFR(L858R) (Homo sapiens, UniProt P00533, L858R); assay: DiscoveRx KinomeScan binding
T11 construct: purchased DiscoveRx scanEDGE panel

IKK---beta = biological target: T12, IKK---beta (Homo sapiens, UniProt O14920); assay: DiscoveRx KinomeScan binding; conditions: Entrez IKBKB
T12 construct: purchased DiscoveRx scanEDGE panel

INSR = biological target: T13, INSR (Homo sapiens, UniProt P06213); assay: DiscoveRx KinomeScan binding
T13 construct: purchased DiscoveRx scanEDGE panel

[1] = biological target: T14, JAK2(JH1domain---catalytic) (Homo sapiens, UniProt O60674); assay: DiscoveRx KinomeScan binding
T14 construct: JAK2(JH1domain---catalytic); purchased DiscoveRx scanEDGE panel

JNK1 = biological target: T15, JNK1 (Homo sapiens, UniProt P45983); assay: DiscoveRx KinomeScan binding; conditions: Entrez MAPK8
T15 construct: purchased DiscoveRx scanEDGE panel

KIT = biological target: T16, KIT (Homo sapiens, UniProt P10721); assay: DiscoveRx KinomeScan binding
T16 construct: purchased DiscoveRx scanEDGE panel (KinomeScan)

KIT(V559D,T670I) = biological target: T17, KIT(V559D,T670I) (Homo sapiens, UniProt P10721, T670I/V559D); assay: DiscoveRx KinomeScan binding
T17 construct: purchased DiscoveRx scanEDGE panel (KinomeScan)

MARK3 = biological target: T18, MARK3 (Homo sapiens, UniProt P27448); assay: DiscoveRx KinomeScan binding
T18 construct: purchased DiscoveRx scanEDGE panel (KinomeScan)

MEK2 = biological target: T19, MEK2 (Homo sapiens, UniProt P36507); assay: DiscoveRx KinomeScan binding; conditions: Entrez MAP2K2
T19 construct: purchased DiscoveRx scanEDGE panel (KinomeScan)

MET = biological target: T20, MET (Homo sapiens, UniProt P08581); assay: DiscoveRx KinomeScan binding
T20 construct: purchased DiscoveRx scanEDGE panel (KinomeScan)

p38---beta = biological target: T21, p38---beta (Homo sapiens, UniProt Q15759); assay: DiscoveRx KinomeScan binding; conditions: Entrez MAPK11
T21 construct: purchased DiscoveRx scanEDGE panel (KinomeScan)

PCTK1 = biological target: T22, PCTK1 (Homo sapiens, UniProt Q00536); assay: DiscoveRx KinomeScan binding; conditions: Entrez CDK16
T22 construct: purchased DiscoveRx scanEDGE panel (KinomeScan)

PDGFRB = biological target: T23, PDGFRB (Homo sapiens, UniProt P09619); assay: DiscoveRx KinomeScan binding
T23 construct: purchased DiscoveRx scanEDGE panel (KinomeScan)

PDPK1 = biological target: T24, PDPK1 (Homo sapiens, UniProt O15530); assay: DiscoveRx KinomeScan binding
T24 construct: purchased DiscoveRx scanEDGE panel (KinomeScan)
T24 sequence (O15530 whole entry): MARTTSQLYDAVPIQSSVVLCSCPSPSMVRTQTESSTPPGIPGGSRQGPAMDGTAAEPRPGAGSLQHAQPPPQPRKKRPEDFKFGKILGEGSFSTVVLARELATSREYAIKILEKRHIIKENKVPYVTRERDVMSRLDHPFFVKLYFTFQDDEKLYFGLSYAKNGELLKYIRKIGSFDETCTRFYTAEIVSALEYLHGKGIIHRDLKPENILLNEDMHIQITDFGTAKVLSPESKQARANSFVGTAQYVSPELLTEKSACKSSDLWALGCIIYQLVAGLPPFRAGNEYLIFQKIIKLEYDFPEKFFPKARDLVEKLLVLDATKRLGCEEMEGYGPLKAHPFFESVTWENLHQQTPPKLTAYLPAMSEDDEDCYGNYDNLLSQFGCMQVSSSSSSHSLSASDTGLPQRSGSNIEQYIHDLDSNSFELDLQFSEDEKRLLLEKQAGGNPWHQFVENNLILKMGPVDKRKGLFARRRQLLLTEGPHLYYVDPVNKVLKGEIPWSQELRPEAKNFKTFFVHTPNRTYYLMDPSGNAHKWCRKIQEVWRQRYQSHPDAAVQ

PIM1 = biological target: T25, PIM1 (Homo sapiens, UniProt P11309); assay: DiscoveRx KinomeScan binding
T25 construct: purchased DiscoveRx scanEDGE panel

PLK1 = biological target: T26, PLK1 (Homo sapiens, UniProt P53350); assay: DiscoveRx KinomeScan binding
T26 construct: purchased DiscoveRx scanEDGE panel
T26 sequence (P53350 whole entry): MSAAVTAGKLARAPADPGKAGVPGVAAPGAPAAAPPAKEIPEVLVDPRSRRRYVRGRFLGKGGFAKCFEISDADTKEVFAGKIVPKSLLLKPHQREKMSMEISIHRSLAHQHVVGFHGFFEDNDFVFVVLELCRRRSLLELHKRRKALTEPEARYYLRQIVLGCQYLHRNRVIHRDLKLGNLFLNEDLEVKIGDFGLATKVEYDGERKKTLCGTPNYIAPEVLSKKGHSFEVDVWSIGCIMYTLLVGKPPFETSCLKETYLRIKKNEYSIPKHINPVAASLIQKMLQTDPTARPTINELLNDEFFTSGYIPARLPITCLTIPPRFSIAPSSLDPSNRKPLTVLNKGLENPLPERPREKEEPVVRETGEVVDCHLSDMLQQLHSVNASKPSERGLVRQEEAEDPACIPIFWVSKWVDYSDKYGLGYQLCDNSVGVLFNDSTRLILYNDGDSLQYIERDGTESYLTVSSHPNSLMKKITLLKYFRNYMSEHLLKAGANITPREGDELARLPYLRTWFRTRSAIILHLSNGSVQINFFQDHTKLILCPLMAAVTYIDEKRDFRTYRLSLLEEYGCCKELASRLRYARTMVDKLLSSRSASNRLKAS

RAF1 = biological target: T27, RAF1 (Homo sapiens, UniProt P04049); assay: DiscoveRx KinomeScan binding
T27 construct: purchased DiscoveRx scanEDGE panel

ROCK2 = biological target: T28, ROCK2 (Homo sapiens, UniProt O75116); assay: DiscoveRx KinomeScan binding
T28 construct: purchased DiscoveRx scanEDGE panel

TIE2 = biological target: T29, TIE2 (Homo sapiens, UniProt Q02763); assay: DiscoveRx KinomeScan binding; conditions: Entrez TEK
T29 construct: purchased DiscoveRx scanEDGE panel
T29 sequence (Q02763 23-1124): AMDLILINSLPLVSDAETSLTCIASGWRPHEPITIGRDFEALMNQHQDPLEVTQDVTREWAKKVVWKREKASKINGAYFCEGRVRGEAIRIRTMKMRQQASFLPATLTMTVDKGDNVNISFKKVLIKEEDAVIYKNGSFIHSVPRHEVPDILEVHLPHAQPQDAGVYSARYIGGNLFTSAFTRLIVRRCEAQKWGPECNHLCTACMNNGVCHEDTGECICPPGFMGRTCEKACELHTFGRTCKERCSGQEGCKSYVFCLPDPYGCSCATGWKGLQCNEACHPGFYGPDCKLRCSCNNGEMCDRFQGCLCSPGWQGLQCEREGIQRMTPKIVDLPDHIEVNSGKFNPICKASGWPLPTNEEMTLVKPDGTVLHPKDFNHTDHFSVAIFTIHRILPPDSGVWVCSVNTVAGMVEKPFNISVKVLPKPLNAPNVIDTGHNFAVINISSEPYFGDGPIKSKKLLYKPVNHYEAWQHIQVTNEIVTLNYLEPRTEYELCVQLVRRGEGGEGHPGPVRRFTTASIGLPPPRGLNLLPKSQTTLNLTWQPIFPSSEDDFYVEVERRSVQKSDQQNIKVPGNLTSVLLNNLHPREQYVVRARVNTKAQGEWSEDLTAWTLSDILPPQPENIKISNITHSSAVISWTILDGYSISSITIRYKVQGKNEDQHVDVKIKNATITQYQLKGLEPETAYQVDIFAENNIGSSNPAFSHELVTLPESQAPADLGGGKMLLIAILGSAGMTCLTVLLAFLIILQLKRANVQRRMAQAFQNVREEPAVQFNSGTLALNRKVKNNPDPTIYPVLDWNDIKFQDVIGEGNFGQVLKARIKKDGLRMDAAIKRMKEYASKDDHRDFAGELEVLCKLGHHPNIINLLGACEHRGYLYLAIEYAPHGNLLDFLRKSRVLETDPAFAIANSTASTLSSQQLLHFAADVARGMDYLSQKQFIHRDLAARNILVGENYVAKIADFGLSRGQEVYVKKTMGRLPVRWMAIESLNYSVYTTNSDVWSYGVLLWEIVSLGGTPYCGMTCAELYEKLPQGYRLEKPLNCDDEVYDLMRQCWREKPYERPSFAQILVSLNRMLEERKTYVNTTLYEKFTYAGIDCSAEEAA

TSSK1B = biological target: T30, TSSK1B (Homo sapiens, UniProt Q9BXA7); assay: DiscoveRx KinomeScan binding
T30 construct: purchased DiscoveRx scanEDGE panel
T30 sequence (Q9BXA7 whole entry): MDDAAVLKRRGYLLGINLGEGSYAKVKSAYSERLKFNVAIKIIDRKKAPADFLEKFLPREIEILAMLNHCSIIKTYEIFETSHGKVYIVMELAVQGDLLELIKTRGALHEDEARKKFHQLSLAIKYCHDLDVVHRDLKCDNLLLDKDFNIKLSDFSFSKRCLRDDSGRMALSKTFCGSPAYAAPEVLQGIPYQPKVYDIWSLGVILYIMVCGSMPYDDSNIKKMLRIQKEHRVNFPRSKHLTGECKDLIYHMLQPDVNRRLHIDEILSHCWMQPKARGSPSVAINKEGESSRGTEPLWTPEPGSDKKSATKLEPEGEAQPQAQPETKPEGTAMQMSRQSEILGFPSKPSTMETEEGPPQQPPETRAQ

[2] = biological target: T31, TYK2(JH1domain---catalytic) (Homo sapiens, UniProt P29597); assay: DiscoveRx KinomeScan binding
T31 construct: TYK2(JH1domain---catalytic); purchased DiscoveRx scanEDGE panel

YANK3 = biological target: T32, YANK3 (Homo sapiens, UniProt Q86UX6); assay: DiscoveRx KinomeScan binding; conditions: Entrez STK32C
T32 construct: purchased DiscoveRx (KinomeScan scanEDGE panel service)
T32 sequence (Q86UX6 whole entry): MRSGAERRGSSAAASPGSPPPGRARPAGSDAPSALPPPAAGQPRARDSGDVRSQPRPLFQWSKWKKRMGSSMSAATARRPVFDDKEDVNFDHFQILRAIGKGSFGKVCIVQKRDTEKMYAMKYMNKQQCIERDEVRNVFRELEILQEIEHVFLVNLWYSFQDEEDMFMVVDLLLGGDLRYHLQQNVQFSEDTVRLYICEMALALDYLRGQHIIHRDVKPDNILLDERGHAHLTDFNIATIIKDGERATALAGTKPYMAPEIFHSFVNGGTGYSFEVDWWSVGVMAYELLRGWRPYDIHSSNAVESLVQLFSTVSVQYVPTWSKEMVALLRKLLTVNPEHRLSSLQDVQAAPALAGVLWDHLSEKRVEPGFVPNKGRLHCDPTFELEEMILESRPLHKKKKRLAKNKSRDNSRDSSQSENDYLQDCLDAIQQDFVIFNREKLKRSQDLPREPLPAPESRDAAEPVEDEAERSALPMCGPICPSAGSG

SMILES: COc1ccc(NC(=O)Nc2ccc3c(c2)C(=O)N([C@@H](C)CO)C[C@H](C)[C@H](CN(C)Cc2ccc4c(c2)OCO4)O3)cc1 [BRD-7880]
- cell lines with AUC<0.5 (selectivity) (102 barcoded cell lines; 8 doses 0.25-32 μM): 12 of 102
- EC50 (102 barcoded cell lines): ~1000 nM
- significant inhibition (defined as activity<25% control) across 308 kinases (308 kinases): inhibited aurora kinase B
- DNA content per cell (HCT-116 cells): increased DNA content
- Percent Control (AKT1): 87%
- binding to aurora kinase A (AURKA): 25 % of control
- Percent Control (AURKA; AURKA): 22%
- binding to aurora kinase B (AURKB): 0.5 % of control
- Percent Control (AURKB; AURKB): 0.5%
- Percent Control (BMPR2): 100%
- Percent Control (BRAF): 70%
- Percent Control (BTK): 94%
- Percent Control (CDK9): 90%
- Percent Control (CSNK1D): 100%
- Percent Control (DYRK1B): 55%
- Percent Control (EGFR): 66%
- Percent Control (EGFR(L858R)): 60%
- Percent Control (IKK---beta): 68%
- Percent Control (INSR): 36%
- Percent Control [1]: 98%
- Percent Control (JNK1): 91%
- Percent Control (KIT): 77%
- Percent Control (KIT(V559D,T670I)): 100%
- Percent Control (MARK3): 100%
- Percent Control (MEK2): 73%
- Percent Control (MET): 100%
- Percent Control (p38---beta): 87%
- Percent Control (PCTK1): 95%
- Percent Control (PDGFRB): 100%
- Percent Control (PDPK1): 48%
- Percent Control (PIM1): 87%
- Percent Control (PLK1): 39%
- Percent Control (RAF1): 100%
- Percent Control (ROCK2): 100%
- Percent Control (TIE2): 97%
- Percent Control (TSSK1B): 57%
- Percent Control [2]: 87%
- Percent Control (YANK3): 91%

Source: patent publication US10724099B2, “Multiplex methods to assay mixed cell populations simultaneously” (The Broad Institute, Inc., priority 2012, dated 2020)
